What was measured:
[1] = target: PxGSTσ1 (Plutella xylostella, UniProt Q6F436); assay: Inhibition of PxGSTσ1 recombinant protein; type: biochemical; conditions: read-out: 100 μM Inhibition rate %
Description: (§1) Experiment: 100 μL of PBS buffer (100 mM, pH 7.2) was taken and added to a 96-well plate, 1 μg of PxGSTs recombinant protein and an appropriate concentration of the compounds PXG1-PXG29 of the present invention were added to each well, after uniformly mixing, and allowed to stand at 30° C. for 10 min. Then 100 μL of PBS buffer (100 mM, pH 7.2) containing 1 mM CDNB and 1 mM GSH was successively added to each well. Immediately after mixing, the mixture was placed in a microplate reader to measure the absorbance at a wavelength of 340 nm (A340) once every 1 min, the measurement was continued for 5 min, the light absorption values of each measuring point were recorded and the inhibition rate in vitro of the compounds PXG1-PXG29 of the present invention with different concentrations against PxGSTs recombinant protein were calculated. Each group of assays was repeated three times, and PxGSTs recombinant protein inactivated at 100° C. for 5 min was used as negative control, and GTX was used as positive control. GraphPad Prism 5 software was used for analysis and calculation of IC50. Relative inhibition was calculated using the following formula:
(§2) [formula] • wherein, A340c is the change of A340 […] the control group, an A340t is the change of A340 within 5 minutes for the experimental group.

[2] = target: PxGSTσ2 (Plutella xylostella, UniProt Q6F443); assay: Inhibition of PxGSTσ2 recombinant protein; type: biochemical; conditions: read-out: 100 μM Inhibition rate %
Description: as §1, §2

[3] = target: PxGSTδ1 (Plutella xylostella, UniProt D7URW9); assay: Inhibition of PxGSTδ1 recombinant protein; type: biochemical; conditions: read-out: 100 μM Inhibition rate %
Description: as §1, §2

[4] = system: resistant strains of Plutella xylostella; assay: Insecticidal synergistic activity with indoxacarb, leaf dip, resistant strains (Huizhou); type: in vivo; conditions: for Resistance ratio to indoxacarb: 48 hours
Description: Experiment: 95% indoxacarb (Ind) original drug was prepared into mother liquor with a concentration of 50000 mg/L. During the test, 6 treatment solutions with concentrations of 500, 250, 125, 62.5, 31.25 and 15.63 mg/L were prepared. 200 mg/L of the compounds PXG1, PXG2 and PXG22 of the present invention were added to each treatment solution, 200 mg/L of diethyl maleate (DEM) was used as the control synergist, and water was used as another control. The Plutella xylostella (Linnaeus) larvae was collected from a vegetable field in Huizhou city, Guangdong Province. Healthy 3rd instar larvae of the same age were selected for indoor biological activity assay.
Clean wild cabbage leaves were cut into discs with a diameter of 6.5 cm (avoiding main veins). The leaves were soaked in the pesticide solution for 10 seconds, then taken out, dried at 25° C., and placed in a petri dish with a diameter of 6.5 cm. 10 larvae of the resistant strains of Plutella xylostella at the early stage of 3rd instar were placed in each petri dish, which was covered with double-layer absorbent roll paper, and covered by the upper cover of the petri dish. It was placed face up in an incubator at a temperature of 25±1° C., a relative humidity of 65%-70%, and a light ratio (L:D) of 16: 8 h. Each treatment was replicated 4 times with 10 larvae per replicate. […] The test process is strictly in accordance with the standard: NY/T 1154.7-2006.
Experimental data analysis was carried out using practical statistical analysis and its computer processing platform (DPS) (TANG Qiyi et al., 1997). The toxicity regression equation of each agent was established, LC50 value and 95% confidence limit were calculated.

[5] = target: PxGSTε3 (Plutella xylostella, UniProt O77409); assay: Inhibition of PxGSTε3 recombinant protein; type: biochemical; conditions: read-out: 100 μM Inhibition rate %
Description: as §1, §2

[6] = target: Carposina sasakii GSTs; assay: Inhibition of total GSTs enzyme of Carposina sasakii (CDNB method); type: biochemical
Description: (§3) Experiment: About 50 mg of larvae/nymphs of nine major pests such as Plutella xylostella, Mythimna separata, Pyrausta nubilalis, Chilo suppressalis, Nilaparvata lugens, Spodoptera frugiperda, Helicoverpa armigera, Carposina sasakii, Spodoptera litura were taken, grounded in a mortar pre-cooled at −80° C., and then 1 mL of 100 mM sodium phosphate buffer (1 mM EDTA, pH 7.2) was added and fully homogenized. The homogenate was transferred to a 1.5 mL centrifuge tube at 4° C., and centrifuged at 14,000 g for 30 minutes, and the supernatant was transferred to a new centrifuge tube as the GSTs total enzyme. The protein concentrations of the above total enzymes were determined using the BCA method.
(§4) 100 μL of PBS buffer (100 mM, pH 7.2) containing 1 mM GSH was taken and placed in a 96-well plate, 5 μg of insect total GSTs enzymes and an appropriate concentration of compounds PXG1-PXG29 (29 compounds) of the present invention were added to each well, after uniformly mixing, and allowed to stand at 30° C. for 10 min. Then 100 μL of PBS buffer (100 mM, pH 7.2) containing 1 mM CDNB was added to each well. Immediately after mixing, the mixture was placed in a microplate reader to measure the absorbance at a wavelength of 340 nm (A 340) once every 1 min, the measurement was carried out continuously for 5 min, the light absorption values of each measuring point were recorded and the inhibition rate in vitro of the compounds with different concentrations against insects total GSTs enzymes were calculated. Each group of assays was repeated three times, and total GSTs enzymes inactivated at 100° C. for 5 min were used as negative controls, and GTX was used as positive controls. GraphPad Prism 5 software was used for analysis and calculation of IC50. Relative inhibition was calculated using the following formula:
(§5) [formula] • wherein, A340 is the change of A340 within 5 minutes for the control group, and A340t is the change of A340 within 5 minutes for the experimental group.

[7] = target: Spodoptera frugiperda GSTs; assay: Inhibition of total GSTs enzyme of Spodoptera frugiperda (CDNB method); type: biochemical
Description: as §3, §4, §5

[8] = target: Spodoptera litura GSTs; assay: Inhibition of total GSTs enzyme of Spodoptera litura (CDNB method); type: biochemical
Description: as §3, §4, §5

[9] = target: Chilo suppressalis GSTs; assay: Inhibition of total GSTs enzyme of Chilo suppressalis (CDNB method); type: biochemical
Description: as §3, §4, §5

[10] = target: Nilaparvata lugens GSTs; assay: Inhibition of total GSTs enzyme of Nilaparvata lugens (CDNB method); type: biochemical
Description: as §3, §4, §5

[11] = target: Plutella xylostella GSTs; assay: Inhibition of total GSTs enzyme of Plutella xylostella (CDNB method); type: biochemical
Description: as §3, §4, §5

[12] = target: Helicoverpa armigera GSTs; assay: Inhibition of total GSTs enzyme of Helicoverpa armigera (CDNB method); type: biochemical
Description: as §3, §4, §5

[13] = target: Pyrausta nubilalis GSTs; assay: Inhibition of total GSTs enzyme of Pyrausta nubilalis (CDNB method); type: biochemical
Description: as §3, §4, §5

[14] = target: Mythimna separata GSTs; assay: Inhibition of total GSTs enzyme of Mythimna separata (CDNB method); type: biochemical
Description: as §3, §4, §5

[15] = indoxacarb alone or with 200 mg/L synergist

PxGSTσ1, sequence (Q6F436 entry or part of it): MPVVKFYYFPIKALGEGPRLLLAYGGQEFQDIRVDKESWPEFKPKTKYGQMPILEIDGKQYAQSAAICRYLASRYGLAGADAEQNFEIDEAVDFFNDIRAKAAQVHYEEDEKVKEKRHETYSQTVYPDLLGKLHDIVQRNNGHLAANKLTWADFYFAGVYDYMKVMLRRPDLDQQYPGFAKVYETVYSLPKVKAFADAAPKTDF
PxGSTσ2, sequence (Q6F443 entry or part of it): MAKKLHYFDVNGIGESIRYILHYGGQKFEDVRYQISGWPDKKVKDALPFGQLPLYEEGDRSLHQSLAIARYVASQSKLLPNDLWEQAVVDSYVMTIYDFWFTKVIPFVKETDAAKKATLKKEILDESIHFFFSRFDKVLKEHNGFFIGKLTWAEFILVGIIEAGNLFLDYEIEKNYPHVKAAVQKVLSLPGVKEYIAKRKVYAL
PxGSTε3, sequence (O77409 entry or part of it): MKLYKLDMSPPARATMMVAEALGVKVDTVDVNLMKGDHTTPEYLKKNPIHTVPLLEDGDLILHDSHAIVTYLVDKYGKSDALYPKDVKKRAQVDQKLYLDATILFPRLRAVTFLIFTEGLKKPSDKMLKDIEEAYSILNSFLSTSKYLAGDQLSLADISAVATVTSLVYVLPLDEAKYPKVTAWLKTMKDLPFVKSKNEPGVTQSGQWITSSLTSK
PxGSTδ1, sequence (D7URW9 entry or part of it): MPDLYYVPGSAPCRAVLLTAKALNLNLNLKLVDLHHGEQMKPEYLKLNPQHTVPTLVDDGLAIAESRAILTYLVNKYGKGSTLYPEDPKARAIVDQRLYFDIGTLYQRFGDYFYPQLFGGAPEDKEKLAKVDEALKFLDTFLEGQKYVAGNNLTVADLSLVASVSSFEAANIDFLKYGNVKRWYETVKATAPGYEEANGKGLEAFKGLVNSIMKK

SMILES | inhibition at 100 µM [1] [%] | inhibition at 100 µM [2] [%] | inhibition at 100 µM [3] [%] | inhibition at 100 µM [5] [%] | IC50 [6] [µM] | 100 μM Inhibition rate % [6] [%] | IC50 [7] [µM] | 100 μM Inhibition rate % [7] [%] | IC50 [8] [µM] | 100 μM Inhibition rate % [8] [%] | IC50 [9] [µM] | 100 μM Inhibition rate % [9] [%] | IC50 [10] [µM] | 100 μM Inhibition rate % [10] [%] | IC50 [11] [µM] | 100 μM Inhibition rate % [11] [%] | IC50 [12] [µM] | 100 μM Inhibition rate % [12] [%] | IC50 [13] [µM] | 100 μM Inhibition rate % [13] [%] | further results
Cc1csc(CC(=O)NNC(=O)c2cc(-c3ccccc3)nn2-c2ccccc2)n1 [PXG2, N′-[2-(4-methyl-1,3-thiazol-2-yl)acetyl]-1,3-diphenyl-1H-pyrazol-5-yl-carbohydrazide] | 25.1 | 14.6 | 87.8 | -4 | – | – | – | – | – | – | – | – | – | – | – | – | – | – | – | – | LC50 of indoxacarb ([4]; in vivo): 39.93 µg/mL; Resistance ratio to indoxacarb [4, 15]: 76.78
COC(=O)N(C(=O)N1CO[C@@]2(C(=O)OC)Cc3cc(Cl)ccc3C2=N1)c1ccc(OC(F)(F)F)cc1 [Ind, Indoxacarb, reference compound] | – | – | – | – | – | – | – | – | – | – | – | – | – | – | – | – | – | – | – | – | LC50 of indoxacarb ([4]; indoxacarb alone or with 200 mg/L synergist, 3rd instar larvae, mortality after 48 hours): 74.72 µg/mL; Resistance ratio to indoxacarb [4, 15]: 143.70
O=C(COc1ccccc1)NNC(=O)c1cc(-c2ccccc2)nn1-c1ccccc1 [PXG5, N′-(1,3-diphenyl-1H-pyrazol-5-yl-carbonyl)-2-phenoxyacetohydrazide] | 35.6 | 24.5 | 81.7 | -2.97 | > 100 | 23.22 | > 100 | 31.42 | > 100 | 37.80 | > 100 | 28.17 | > 100 | 23.90 | > 100 | 11.58 | > 100 | 9.57 | > 100 | 14.08 | IC50 [14]: > 100 µM; 100 μM Inhibition rate % [14]: 47.24%
COc1ccccc1OCC(=O)NNC(=O)c1cc(-c2ccccc2)nn1-c1ccccc1 [PXG18, N′-(1,3-diphenyl-1H-pyrazol-5-yl-carbonyl)-2-(2-methoxyphenoxy)acetohydrazide] | 31.7 | 13.5 | 82 | -2.47 | > 100 | 13.69 | > 100 | 28.67 | > 100 | 7.95 | > 100 | 23.00 | > 100 | 45.31 | > 100 | 32.94 | > 100 | −3.02 | > 100 | 23.84 | IC50 [14]: > 100 µM; 100 μM Inhibition rate % [14]: −2.16%

Now from value to compound, other results behind:

inhibition at 100 µM [1] [%] | inhibition at 100 µM [2] [%] | inhibition at 100 µM [3] [%] | inhibition at 100 µM [5] [%] | IC50 [6] [µM] | 100 μM Inhibition rate % [6] [%] | IC50 [7] [µM] | 100 μM Inhibition rate % [7] [%] | IC50 [8] [µM] | 100 μM Inhibition rate % [8] [%] | IC50 [9] [µM] | 100 μM Inhibition rate % [9] [%] | IC50 [10] [µM] | 100 μM Inhibition rate % [10] [%] | IC50 [11] [µM] | 100 μM Inhibition rate % [11] [%] | IC50 [12] [µM] | 100 μM Inhibition rate % [12] [%] | IC50 [13] [µM] | 100 μM Inhibition rate % [13] [%] | SMILES | further results
49.1 | 33.6 | 12.2 | 4.85 | > 100 | 18.21 | > 100 | 11.37 | > 100 | 6.90 | > 100 | 15.98 | > 100 | −1.46 | > 100 | 21.15 | > 100 | 23.21 | > 100 | 13.70 | O=C(NN1C(=O)NC2(CCCCC2)C1=O)c1cc(-c2ccccc2)nn1-c1ccccc1 [PXG6] | IC50 [14]: > 100 µM; 100 μM Inhibition rate % [14]: 38.85%
67.9 | 24.7 | 21.6 | 7.12 | > 100 | 18.11 | > 100 | 16.01 | > 100 | 15.89 | > 100 | 17.07 | > 100 | 28.56 | > 100 | 25.09 | > 100 | 24.75 | > 100 | −0.99 | O=C(CC12C[C@H]3C[C@H](C1)C[C@@H](C2)C3)NNC(=O)c1cc(-c2ccccc2)nn1-c1ccccc1 [PXG26, N′-(1,3-diphenyl-1H-pyrazol-5-yl-carbonyl)-2-[(3r)-adamantan-1-yl]acetohydrazide] | IC50 [14]: > 100 µM; 100 μM Inhibition rate % [14]: 42.48%
28.6 | 31.4 | 30.4 | -3.88 | > 100 | 12.55 | > 100 | 5.56 | > 100 | 12.58 | > 100 | 34.79 | > 100 | −10.48 | > 100 | 3.94 | > 100 | 5.25 | > 100 | 5.71 | CN(C)S(=O)(=O)c1cccc(C(=O)NNC(=O)c2cc(-c3ccccc3)nn2-c2ccccc2)c1 [PXG9, 3-[N′-(1,3-diphenyl-1H-pyrazol-5-yl-carbonyl) hydrazinocarbonyl]-N,N-dimethylphenyl-1-sulfonamide] | IC50 [14]: > 100 µM; 100 μM Inhibition rate % [14]: 2.72%

Source: patent publication US12617771B2, “Diphenylpyrazole compound, and preparation method therefor and application thereof” (NORTHWEST A&F UNIVERSITY, priority 2021, dated 2026)
